# Source: ChEMBL document CHEMBL2163214, “Design, synthesis, calorimetry, and crystallographic analysis of 2-alkylaminoethyl-1,1-bisphosphonates as inhibitors of Trypanosoma cruzi farnesyl diphosphate synthase” (J Med Chem, 2012)
# pKd: −log10 of the molar value.
# Assay: Binding affinity to Trypanosoma cruzi farnesyl diphosphate synthase at 250 uM at 28 degC by isothermal titration calorimetry
row,pKd,Structure (SMILES)
1,6.40,CCCCCCNCC(P(=O)(O)O)P(=O)(O)O
2,7.23,CCCCCCCNCC(P(=O)(O)O)P(=O)(O)O
3,5.99,CCCCCNCC(P(=O)(O)O)P(=O)(O)O

row,Structure (SMILES),pKd
1,CCCNCC(P(=O)(O)O)P(=O)(O)O,7.60
